From publication PMC5618194, “Orally Delivered Scorpion Antimicrobial Peptides Exhibit Activity against Pea Aphid (Acyrthosiphon pisum) and Its Bacterial Symbionts” (Toxins, 2017)
In brackets after ≈: the same amount, converted by molar mass. Like-named read-outs stand apart in the source and are kept apart here. No end group written: not given here.

Columns and labels:
[1] = test system: S. symbiotica CWBI-2.3; assay: microbe, parasite or virus in culture; assay type: cell-based, Serratia symbiotica; conditions: broth microdilution (CLSI), 96-well polypropylene plates, 535 medium (Tripticase soy broth), 5 × 10^5 CFU/mL, 18 h, absorbance at 600 nm, two-fold dilutions 500 to 4 µg/mL, lowest concentration causing complete growth inhibition
Description: S. symbiotica strain CWBI-2.3, the only aphid symbiotic bacterium that can be cultivated in the laboratory, was purchased from the Leibniz Institute DSMZ (Braunschweig, Germany) and cultivated as recommended by the supplier. MICs were determined according to the CLSI guidelines using a broth microdilution assay in 96-well polypropylene microtiter plates. The bacteria were cultivated overnight at 28 °C using 535 medium (Tripticase soy broth) and diluted to 5 × 10^5 CFU/mL in broth. The AMPs were dissolved in water to a concentration of 4 mg/mL and a series of two-fold dilutions was prepared in 535 broths, ranging from 500 to 4 µg/mL. S. symbiotica CWBI-2.3 in an unmodified medium was used as a positive control, and blanks were prepared with medium only or with medium and water (the latter to exclude any possible negative effect of water on the bacteria). The bacteria were incubated for 18 h and the absorbance at 600 nm was recorded every 20 min. The MICs were defined as the lowest concentrations of AMP causing complete bacterial growth inhibition.

[2] = test system: A. pisum; assay type: in vivo, Acyrthosiphon pisum; conditions: for % Survival: after three days of feeding, 48 h old nymphs, ten per chamber, five replicates, control AP3 diet survival = 90%; for Kaplan-Meier analysis: Mean, Estimate (survival time): three days of feeding, control 2.880, estimation limited to the largest survival time if censored
Description: (§1) A. pisum nymphs (48 h old) were fed for three days on an artificial AP3 diet in modified chambers. The AP3 diet was mixed with the corresponding AMP or control treatment. Ten nymphs were placed in each chamber and five replicates were included per treatment. AMPs were tested at three different concentrations: 50, 250, and 500 µg/mL. Untreated aphids were fed on the control AP3 diet. Positive control treatments comprised aphids fed on the AP3 diet supplemented with the insecticide imidacloprid (5 µg/mL) or the antibiotic rifampicin (50 µg/mL) (Sigma-Aldrich, Taufkirchen, Germany). Imidacloprid is strongly hydrophobic, and was therefore prepared first as a highly concentrated stock (1000 µg/mL) in acetone and working solutions were diluted in the AP3 diet. The corresponding control (AP3 + acetone) was tested on the aphids, and survival was not affected when compared to AP3 diet alone or AP3 diet diluted with water (data not shown). Mortality was scored after 24, 48, and 72 h of feeding. Aphids that survived the three-day treatment were transferred to agar plates containing bean plant leaves and reared for another two weeks in order to determine the impact of the diets on survival and reproduction.
All data were analysed using SPSS v17.0 software (SPSS Inc., Chicago, IL, USA) and statistical significance was defined as p < 0.05. For mortality assessment, we used non-parametric survival analysis (Kaplan-Meier) and multiple pairwise comparisons among different groups were carried out using log-rank tests to assess efficiency. The total number of offspring, time to reproduction, and relative numbers of bacterial symbionts were analysed using the Wilcoxon ranked sum test for non-parametric data and a paired t-test for parametric data.

[3] = test system: S. symbiotica; assay: FISH localization of symbiont in treated aphid nymphs; assay type: in vivo, Serratia symbiotica in Acyrthosiphon pisum
Description: (§2) FISH was carried out as previously described, with slight modifications. Treated A. pisum nymphs were fixed for three days in Carnoy’s solution (6:3:1 […]:glacial acetic acid) and then bleached in 6% H2O2 in 96% ethanol for 1 week. After bleaching, samples were washed in 100% ethanol and then hybridized overnight in hybridization buffer (20 mM Tris-HCl pH 8.0, 0.9 M NaCl, 0.01% sodium dodecylsulfate, 30% formamide) containing 100 nM of each fluorescent probe and 500 nM DAPI. After hybridization, samples were rinsed three times with phosphate buffered saline containing 0.3% Triton X-100 and viewed under a Leica TCS SP8 confocal microscope (Leica Microsystems, Wetzlar, Germany). We analysed a minimum of 20 samples from each treatment. The specificity of detection was confirmed using controls with no probe and specimens were pre-treated with RNase.

[4] = test system: B. aphidicola; assay: as above; assay type: in vivo, Buchnera aphidicola in Acyrthosiphon pisum; conditions: highest concentration of each AMP, control treatments
Description: as §2

[5] = test system: S. symbiotica; assay: qPCR relative quantification of symbiont in treated aphids; assay type: in vivo, Serratia symbiotica in Acyrthosiphon pisum; conditions: 50 µg/mL
Description: (§3) The density of the B. aphidicola and S. symbiotica populations in vivo was determined by qPCR. Genomic DNA was extracted from pools of five aphids, as previously described. Three biological replicates were prepared per treatment. Amplifications were carried out using a StepOnePlus™ Real-Time PCR System (Applied Biosystems, Waltham, MA, USA). The reaction volume was 10 μL, comprising 2 μL of template DNA (25 ng/μL), 10 μM of each specific primer and 5 μL of SYBR Green PCR Master Mix (Applied Biosystems). Each reaction was heated to 95 °C for 10 min, followed by 40 cycles of 95 °C for 15 s and 60 °C for 60 s. Melting curve analysis was performed by increasing the temperature from 60 °C to 95 °C for 15 s, cooling to 60 °C for 60 s and heating to 95 °C for 15 s. […] Relative abundance values for each symbiont were calculated by comparing the threshold cycle (Ct) of each target gene to that of the aphid ribosomal protein L32 gene and efficiencies were calculated using LinReg PCR software.
(§4) All data were analysed using SPSS v17.0 software (SPSS Inc., Chicago, IL, USA) and statistical significance was defined as p < 0.05. […] The total number of offspring, time to reproduction, and relative numbers of bacterial symbionts were analysed using the Wilcoxon ranked sum test for non-parametric data and a paired t-test for parametric data.

[6] = test system: A. pisum; assay: Aphid reproduction after AMP feeding (time to reproduction, number of offspring); assay type: in vivo, Acyrthosiphon pisum; conditions: 50 µg/mL for three days; surviving aphids followed two weeks
Description: The effect of each AMP on A. pisum reproduction was determined by counting the number of offspring and recording the delay before reproduction in surviving aphids for two weeks after treatment (Figure 2).
as §1, with “The corresponding control (AP3 + acetone) was tested on the aphids, and survival was not affected when compared to AP3 diet alone or AP3 diet diluted with water (data not shown).” left out, “Aphids that survived the three-day treatment were transferred to agar plates containing bean plant leaves and reared for another two weeks in order to determine the impact of the diets on survival and reproduction.” left out
as §4

[7] = test system: B. aphidicola; assay: qPCR relative quantification of symbiont in treated aphids; assay type: in vivo, Buchnera aphidicola in Acyrthosiphon pisum; conditions: 50 µg/mL
Description: as §3, §4

[8] = test system: green peach aphid Myzus persicae (Sulzer); design: method as in doi:10.1111/j.1439-0418.2006.01117.x; conditions: cited from earlier work
[9] = test system: Escherichia coli; conditions: cited from earlier work
[10] = after three days of treatment, compared to control AP3 diet, pools of five aphids, three biological replicates
[11] = two weeks after treatment, data not shown

Compound: FLSTIWNGIKGLL-NH2 [Uy192]
- MIC (In Vitro) [1]: 500 µg/mL

Compound: GFWGKLLEGVKKAI-NH2 [D5]
- MIC (In Vitro) [1]: 500 µg/mL

Compound: O=[N+]([O-])NC1=NCCN1Cc1ccc(Cl)nc1 [Imidacloprid]
- % Survival ([2]; 5 µg/mL in AP3 diet): 0%
- Kaplan-Meier analysis: Mean, Estimate (survival time) ([2]; 5 µg/mL): 1.960
- localization of the S. symbiotica FISH signal ([3]; 24 and 48 h after exposure, control treatment): did not affect the localization of the bacterial symbionts
- localization of the B. aphidicola FISH signal ([4]; 48 h after treatment): did not affect the localization of the bacterial symbionts

Compound: ILSAIWSGIKSLF-NH2 [UyCT3]
- MIC (In Vitro) [1]: 125 µg/mL

Compound: LWGKLWEGVKSLI-NH2 [D3]
- MIC (In Vitro) [1]: 250 µg/mL

Compound: CO[C@H]1/C=C/O[C@@]2(C)Oc3c(C)c(O)c4c(O)c(c(/C=N/N5CCN(C)CC5)c(O)c4c3C2=O)NC(=O)/C(C)=C\C=C\[C@H](C)[C@H](O)[C@@H](C)[C@@H](O)[C@@H](C)[C@H](OC(C)=O)[C@@H]1C [Rifampicin]
- MIC ([1]; Serratia symbiotica, CWBI2.3, read-out: MIC (In Vitro)): 50 µg/mL (≈ 60.8 µM)
- density of S. symbiotica (qPCR, relative abundance) [5, 10]: significant reduction
- density of S. symbiotica (qPCR) [5, 11]: significant reduction
- survival during the two weeks after treatment ([2]; 50 µg/mL for three days, survivors monitored for the following two weeks on bean leaves, data not shown): did not affect aphid survival
- % Survival ([2]; 50 µg/mL in AP3 diet): 92.5%
- Kaplan-Meier analysis: Mean, Estimate (survival time) ([2]; 50 µg/mL): 2.925
- number of offspring [6]: hardly any offspring
- S. symbiotica FISH signal ([3]; 48 h after exposure, highest concentration of each AMP, control treatments, minimum of 20 samples per treatment): reduced the S. symbiotica signal
- density of B. aphidicola (qPCR, relative abundance) [7, 10]: significant reduction
- density of B. aphidicola (qPCR) [7, 11]: significant reduction
- intensity of the B. aphidicola FISH signal ([4]; aphid nymphs, 24 and 48 h after exposure): neither the AMPs nor rifampicin reduced the intensity of the signal

Compound: FPFLLSLIPSAISAIKRL-NH2 [Uy234]
- MIC (In Vitro) [1]: >500 µg/mL

Compound: FFSALLSGIKSLF-NH2 [Um4]
- MIC (In Vitro) [1]: >500 µg/mL

Compound: ILSAIWSGIKGLL-NH2 [Uy17]
- MIC (In Vitro) [1]: 250 µg/mL

Compound: indolicidin: an AMP from bovine neutrophils (ILPWKWPWWPWRR; ends and bridges not checked; UniProt P33046 131-143, looked up)
- activity against Myzus persicae [8]: showed activity
- activity against Escherichia coli [9]: showed activity

Compound: RGFRKHFNKLVKKVKHTISETAHVAKDTAVIAGSGAAVVAAT-NH2 [Stomoxyn]
- MIC (In Vitro) [1]: >500 µg/mL

Compound: GFWGKLWEGVKNAI-NH2 [UyCT1]
- MIC (In Vitro) [1]: 125 µg/mL

Compound: GNRPVYIPPPRPPHPRL-NH2 [Apidaecin]
- MIC (In Vitro) [1]: >500 µg/mL

Compound: FPFLKLSLKIPKSAIKSAIKRL-NH2 [D10]
- MIC (In Vitro) [1]: >500 µg/mL

Compound: GFWGKLWEGVKNAIKKK-NH2 [D11]
- MIC (In Vitro) [1]: >500 µg/mL

Compound: IWSAIWSGIKGLL-NH2 [UyCT5]
- MIC (In Vitro) [1]: 125 µg/mL
- nymphs killed after the first day ([2]; in vivo, 48 h, 500 µg/mL): 10%
